Read-outs that look alike come from different tables or passages of the source.
Assays:
Format in all cases: in vivo
Myzus persicae [1] = assay: Myzus persicae oral test; details: 120 h, after 5 days, read-out: efficacy; for pest or weed control at 4 ppm: application rate 4 ppm; for pest or weed control at 0.8 ppm: application rate 0.8 ppm
Experimental: Solvent: 100 parts by weight of acetone To produce a suitable active ingredient formulation, 1 part by weight of active ingredient is dissolved with the stated parts by weight of solvent and made up to the desired concentration with water. 50 μl of the active ingredient preparation are transferred into microtitre plates and made up to a final volume of 200 μl with 150 μl of IPL41 insect medium (33%+15% sugar). Subsequently, the plates are sealed with parafilm, which a mixed population of green peach aphids (Myzus persicae) within a second microtitre plate is able to puncture and imbibe the solution. After 5 days, the efficacy in % is determined. 100% means that all the aphids have been killed; 0% means that no aphids have been killed.

Ctenocephalides felis [2] = assay: Ctenocephalides felis oral test; details: 48 h, application rate 100 ppm in citrated cattle blood, after 2 days, read-out: efficacy (kill)
Experimental: Solvent: dimethyl sulfoxide To produce a suitable active ingredient formulation, 10 mg of active ingredient are mixed with 0.5 ml of dimethyl sulfoxide. Dilution with citrated cattle blood gives the desired concentration. About 20 unfed adult cat fleas (Ctenocephalides felis) are placed into a chamber which is closed at the top and bottom with gauze. A metal cylinder whose bottom end is closed with parafilm is placed onto the chamber. The cylinder contains the blood/active ingredient formulation, which can be imbibed by the fleas through the parafilm membrane. After 2 days, the kill in % is determined. 100% means that all of the fleas have been killed; 0% means that none of the fleas have been killed.

Myzus persicae [3] = assay: Myzus persicae spray test; details: foliar, 120 h, Chinese cabbage leaf discs, after 5 days, read-out: efficacy; for pest or weed control at 100 g/ha: application rate 100 g/ha
Experimental: (§1) Solvent: 78 parts by weight of acetone • • 1.5 parts by weight of dimethylformamide Emulsifier: alkylaryl polyglycol ether To produce a suitable active ingredient formulation, 1 part by weight of active ingredient is dissolved with the specified parts by weight of solvent and made up to the desired concentration with water containing an emulsifier concentration of 1000 ppm. To produce further test concentrations, the formulation is diluted with emulsifier-containing water. Discs of Chinese cabbage leaves (Brassica pekinensis) infested by all stages of the green peach aphid (Myzus persicae) are sprayed with an active ingredient formulation of the desired concentration. After 5 days, the efficacy in % is determined. 100% means that all the aphids have been killed; 0% means that no aphids have been killed.

Ctenocephalides felis [4] = assay: Ctenocephalides felis in vitro contact test with adult cat fleas; details: application rate 5 μg/cm^2 (=500 g/ha), after 48 h, adult cat fleas dead or moribund, read-out: efficacy
Experimental: For the coating of the test tubes, 9 mg of active ingredient are first dissolved in 1 ml of acetone p.a. and then diluted to the desired concentration with acetone p.a. 250 μl of the solution are distributed homogeneously on the inner walls and the base of a 25 ml glass tube by turning and rocking on an orbital shaker (rocking rotation at 30 rpm for 2 h). With 900 ppm of active ingredient solution and internal surface area 44.7 cm^2, given homogeneous distribution, an area-based dose of 5 μg/cm^2 is achieved. After the solvent has evaporated off, the tubes are populated with 5-10 adult cat fleas (Ctenocephalides felis), sealed with a perforated plastic lid and incubated in a horizontal position at room temperature and ambient humidity. After 48 h, efficacy is determined. To this end, the tubes are stood upright and the fleas are knocked to the base of the tube. Fleas which remain motionless at the base or move in an uncoordinated manner are considered to be dead or moribund. […] 100% efficacy means that all the fleas were dead or moribund. 0% efficacy means that no fleas were harmed.

Myzus persicae [5] = assay: Myzus persicae spray test (MYZUPE), contrastive examples; details: 120 h, 5 dat, read-out: % efficacy
Experimental: as §1, with “78.0” for “78”, “chinese” for “Chinese”, “the desired time,” for “5 days,”, “all” for “all the”

Myzus persicae [6] = assay: Myzus persicae drench test (MYZUPE D); details: soil, 240 h, 10 dat, read-out: % efficacy
Experimental: Solvent: 7 parts by weight of dimethylformamide Emulsifier: 2 parts by weight of alkylaryl polyglycol ether To produce an appropriate active ingredient formulation, 1 part by weight of active ingredient is mixed with the stated amounts of solvent and emulsifier, and the concentrate is diluted with water to the desired concentration, it being necessary to take into account soil volume into which drenching is effected. It should be ensured that a concentration of 40 ppm of emulsifier in the soil is not exceeded. For production of further test concentrations, the mixture is diluted with water. Savoy cabbage plants (Brassica oleracea) in earth pots, infested by all stages of the green peach aphid (Myzus persicae), are drenched with an active ingredient formulation of the desired concentration. After the desired time, the efficacy in % is determined. 100% means that all aphids have been killed; 0% means that no aphids have been killed.

Nilaparvata lugens [7] = assay: Nilaparvata lugens spray test (NILALU); details: 96 h, 4 dat, read-out: % efficacy
Experimental: Solvent: 52.5 parts by weight of acetone • 7 parts by weight of dimethylformamide
Emulsifier: alkylaryl polyglycol ether
To produce an appropriate active ingredient formulation, 1 part by weight of active ingredient is dissolved with the stated parts by weight of solvent and made up with water containing an emulsifier concentration of 1000 ppm until the desired concentration is attained. For production of further test concentrations, the mixture is diluted with emulsifier-containing water. If addition of ammonium salts or/and penetrants is required, these are each added to the preparation solution in a concentration of 1000 ppm.
Rice plants (Oryza sativa) are sprayed with an active ingredient formulation of the desired concentration and then populated with larvae of the rice cicada (Nilaparvata lugens).
After the desired time, the efficacy in % is determined. 100% means that all rice cicadas have been killed; 0% means that no rice cicadas have been killed.

Nilaparvata lugens [8] = assay: Nilaparvata lugens test (NILALU S); details: read-out: % efficacy
Experimental: Solvent: 14 parts by weight of dimethylformamide Emulsifier: 2 parts by weight of alkylaryl polyglycol ether To produce an appropriate active ingredient formulation, 1 part by weight of active ingredient is dissolved with the stated parts by weight of solvent and emulsifier and made up with water until the desired concentration is attained. For production of further test concentrations, the mixture is diluted with water. If addition of ammonium salts or/and penetrants (rapeseed oil methyl ester) is required, these are each pipetted into the finished preparation solution in a concentration of 1000 ppm after the dilution. Rice plants (Oryza sativa, var. Balilla) are treated by spraying with the active ingredient formulation in the desired concentration and then populated with L3 larvae of the brown planthopper (Nilaparvata lugens). After the desired time, the kill in % is determined. 100% means that all planthoppers have been killed and 0%, means that no planthoppers have been killed.

Myzus persicae [9] = assay: Myzus persicae spray test (MYZUPE S), bell pepper plants; details: 144 h, 6 dat, read-out: % efficacy
Experimental: Solvent: 14 parts by weight of dimethylformamide Emulsifier: alkylaryl polyglycol ether To produce an appropriate active ingredient formulation, 1 part by weight of active ingredient is dissolved with the stated parts by weight of solvent and made up with water containing an emulsifier concentration of 1000 ppm until the desired concentration is attained. For production of further test concentrations, the mixture is diluted with emulsifier-containing water. If addition of ammonium salts or/and penetrants is required, these are each added to the preparation solution in a concentration of 1000 ppm. Bell pepper plants (Capsicum annuum) severely infested by the green peach aphid (Myzus persicae) are treated by spraying with the active ingredient formulation in the desired concentration. After the desired time, the kill in % is determined. 100% means that all animals have been killed; 0% means that no animals have been killed.

Phaedon cochleariae = Phaedon cochleariae spray test (PHAECO), contrastive examples; details: 168 h, 100 g/ha, 7 dat, read-out: % efficacy
Experimental: Solvent: 78.0 parts by weight of acetone • • 1.5 parts by weight of dimethylformamide Emulsifier: alkylaryl polyglycol ether To produce an appropriate active ingredient formulation, 1 part by weight of active ingredient is dissolved with the stated parts by weight of solvent and made up with water containing an emulsifier concentration of 1000 ppm until the desired concentration is attained. For production of further test concentrations, the mixture is diluted with emulsifier-containing water. Discs of chinese cabbage leaves (Brassica pekinensis) are sprayed with an active ingredient formulation of the desired concentration and, after drying, populated with larvae of the mustard beetle (Phaedon cochleariae). After the desired time, the efficacy in % is determined. 100% means that all beetle larvae have been killed; 0% means that no beetle larvae have been killed.

SMILES	pest or weed control at 4 ppm (Myzus persicae [1]) [%]	Emax at 4 g/ha (Myzus persicae [5]) [%]	Emax at 0.8 ppm (Myzus persicae [6]) [%]	further results
CN(C)C(=O)Nc1ccc(S(C)(=O)=O)c(-c2nc3cc(C(F)(F)F)nnc3n2C)n1 [Example I-4]	100	–	–	pest or weed control at 100 ppm (Ctenocephalides felis [2]): 100%
CNC(=O)Nc1ccc(S(C)(=O)=O)c(-c2nc3cc(C(F)(F)F)nnc3n2C)n1 [Example I-5]	100	–	–	pest or weed control at 0.8 ppm (Myzus persicae [1]): 100%; pest or weed control at 100 g/ha (Myzus persicae [3]): 90%; pest or weed control at 100 ppm (Ctenocephalides felis [2]): 100%; pest or weed control at 5 µg/cm2, 500 g/ha (Ctenocephalides felis [4]): 100%
CCS(=O)(=O)c1ccc(NC(=O)NC)nc1-c1nc2cc(C(F)(F)C(F)(F)F)nnc2n1C [Example I-7]	–	100	–	–
CCS(=O)(=O)c1ccc(N(C)C(=O)NC)nc1-c1nc2cc(C(F)(F)C(F)(F)F)nnc2n1C [Example I-8]	100	–	99	Emax at 4 g/ha (Nilaparvata lugens [7]): 50%
CCS(=O)(=O)c1ccc(NC(=O)N(C)C)nc1-c1nc2cc(C(F)(F)C(F)(F)F)nnc2n1C [Example I-9]	100	–	98	–
CNC(=O)Nc1ccc(S(C)(=O)=O)c(-c2nc3cc(C(F)(F)C(F)(F)F)nnc3n2C)n1 [Example I-10]	100	–	–	Emax at 0.8 ppm (Nilaparvata lugens [8]; 168 h, 7 dat): 95%; Emax at 0.8 ppm (Nilaparvata lugens [8]; 336 h, 14 dat): 80%
CN(C)C(=O)Nc1ccc(S(C)(=O)=O)c(-c2nc3cc(C(F)(F)C(F)(F)F)nnc3n2C)n1 [Example I-11]	100	–	95	Emax at 0.8 ppm (Nilaparvata lugens [8]; 336 h, 14 dat): 85%
CCS(=O)(=O)c1ccc(N(C)C(=O)N(C)C)nc1-c1nc2cc(C(F)(F)F)nnc2n1C [Example I-12]	100	90	–	pest or weed control at 0.8 ppm (Myzus persicae [1]): 100%; pest or weed control at 20 g/ha (Myzus persicae [3]; application rate 20 g/ha): 90%; pest or weed control at 100 g/ha (Myzus persicae [3]): 100%; Emax at 0.8 ppm (Myzus persicae [9]): 90%
CCS(=O)(=O)c1ccc(N(C)C(=O)N(C)C)nc1-c1nc2cc(C(F)(F)C(F)(F)F)nnc2n1C [Example I-13]	100	90	95	–
CCNC(=O)Nc1ccc(S(=O)(=O)CC)c(-c2nc3cc(C(F)(F)F)nnc3n2C)n1 [Prior art according to WO2017/025419, reference compound]	–	0	–	Emax at 0.8 ppm (Myzus persicae [9]): 0%; Emax at 100 g/ha (Phaedon cochleariae): 50%; Emax at 4 g/ha (Nilaparvata lugens [7]): 0%

Reference: patent US11505553B2, “2-(Het)aryl-substituted fused heterocycle derivatives as pesticides” (Bayer Aktiengesellschaft, priority 2017, dated 2022)
